Assay results from ChEMBL document CHEMBL1201862, “PubChem BioAssay data set” (2004).
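Test compounds were applied to cells in 96-well plates for 48 hours at 5 doses. Abbreviation: GI50, concentration required for 50% inhibition of growth.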 Calls of active or inactive are those of the source. Rule as the data show it: active = GI50 up to about 1.1 µM and inactive = higher.

Columns and labels:
Assay in all cases: growth of human tumour cells (NCI), 48 h
NCI-H226 = tested on: NCI-H226
SK-OV-3 = tested on: SK-OV-3
NCI-H23 = tested on: NCI-H23
LOX IMVI = tested on: LOX IMVI
NCI/ADR-RES = tested on: NCI/ADR-RES
ACHN = tested on: ACHN
HCC 2998 = tested on: HCC 2998
OVCAR-5 = tested on: OVCAR-5
RPMI-8226 = tested on: RPMI-8226
SNB-75 = tested on: SNB-75
SW-620 = tested on: SW-620
SK-MEL-28 = tested on: SK-MEL-28
TK-10 = tested on: TK-10
A549 = tested on: A549
SF-268 = tested on: SF-268
SK-MEL-5 = tested on: SK-MEL-5
HCT-116 = tested on: HCT-116
K562 = tested on: K562
RXF 393 = tested on: RXF 393
NCI-H460 = tested on: NCI-H460

Measured: GI50

Cc1c(Cc2ccccc2)n(COCCCO)c(=O)[nH]c1=O
inactive: NCI-H226 > 100 µM | SK-OV-3 > 100 µM | NCI-H23 > 100 µM | LOX IMVI > 100 µM | NCI/ADR-RES > 100 µM | ACHN > 100 µM | HCC 2998 > 100 µM | OVCAR-5 > 100 µM | RPMI-8226 > 100 µM | SNB-75 > 100 µM | SW-620 > 100 µM | SK-MEL-28 > 100 µM | TK-10 > 100 µM | A549 > 100 µM | SF-268 > 100 µM | SK-MEL-5 > 100 µM | HCT-116 > 100 µM | K562 > 100 µM | RXF 393 > 100 µM | NCI-H460 > 100 µM

C[N+]1(C)CN(c2ccccc2)C2(CCN(CCCC(=O)c3cccs3)CC2)C1=O
inactive: NCI-H226 > 100 µM | SK-OV-3 > 100 µM | NCI-H23 82.6 µM | LOX IMVI 58.1 µM | NCI/ADR-RES > 100 µM | ACHN > 100 µM | HCC 2998 65.9 µM | OVCAR-5 85.1 µM | RPMI-8226 47.3 µM | SNB-75 27.7 µM | SW-620 > 100 µM | SK-MEL-28 > 100 µM | TK-10 > 100 µM | A549 > 100 µM | SF-268 > 100 µM | SK-MEL-5 28.1 µM | HCT-116 58.9 µM | K562 76 µM | RXF 393 > 100 µM | NCI-H460 57 µM
